Broadly, the IC50 is the concentration that inhibits the measured activity by half. Read a low IC50 as inhibition by little substance.

For one assay, the target named is T1, Heme-containing sGC (Rattus norvegicus, UniProt P20595).
T1 construct: made in house; host or cells: Sf9 insect cells (baculovirus)
T1 sequence (P20595 1-619): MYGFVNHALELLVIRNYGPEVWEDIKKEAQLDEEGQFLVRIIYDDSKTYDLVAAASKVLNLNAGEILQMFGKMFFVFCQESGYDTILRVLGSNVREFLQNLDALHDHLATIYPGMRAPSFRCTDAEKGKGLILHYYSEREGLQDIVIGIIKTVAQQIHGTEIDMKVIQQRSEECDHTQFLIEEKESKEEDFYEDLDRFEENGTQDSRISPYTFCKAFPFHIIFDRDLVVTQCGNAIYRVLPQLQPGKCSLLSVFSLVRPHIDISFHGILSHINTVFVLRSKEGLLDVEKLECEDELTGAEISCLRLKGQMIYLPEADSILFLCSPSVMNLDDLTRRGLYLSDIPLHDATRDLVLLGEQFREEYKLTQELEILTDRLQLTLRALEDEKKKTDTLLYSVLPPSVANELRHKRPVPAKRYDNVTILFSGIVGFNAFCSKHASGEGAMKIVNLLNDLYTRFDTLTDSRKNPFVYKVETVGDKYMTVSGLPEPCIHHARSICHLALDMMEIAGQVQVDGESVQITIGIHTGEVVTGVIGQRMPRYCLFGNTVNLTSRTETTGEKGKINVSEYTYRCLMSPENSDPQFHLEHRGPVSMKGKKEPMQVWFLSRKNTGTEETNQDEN
T1 sequence (P19686 1-690 partner): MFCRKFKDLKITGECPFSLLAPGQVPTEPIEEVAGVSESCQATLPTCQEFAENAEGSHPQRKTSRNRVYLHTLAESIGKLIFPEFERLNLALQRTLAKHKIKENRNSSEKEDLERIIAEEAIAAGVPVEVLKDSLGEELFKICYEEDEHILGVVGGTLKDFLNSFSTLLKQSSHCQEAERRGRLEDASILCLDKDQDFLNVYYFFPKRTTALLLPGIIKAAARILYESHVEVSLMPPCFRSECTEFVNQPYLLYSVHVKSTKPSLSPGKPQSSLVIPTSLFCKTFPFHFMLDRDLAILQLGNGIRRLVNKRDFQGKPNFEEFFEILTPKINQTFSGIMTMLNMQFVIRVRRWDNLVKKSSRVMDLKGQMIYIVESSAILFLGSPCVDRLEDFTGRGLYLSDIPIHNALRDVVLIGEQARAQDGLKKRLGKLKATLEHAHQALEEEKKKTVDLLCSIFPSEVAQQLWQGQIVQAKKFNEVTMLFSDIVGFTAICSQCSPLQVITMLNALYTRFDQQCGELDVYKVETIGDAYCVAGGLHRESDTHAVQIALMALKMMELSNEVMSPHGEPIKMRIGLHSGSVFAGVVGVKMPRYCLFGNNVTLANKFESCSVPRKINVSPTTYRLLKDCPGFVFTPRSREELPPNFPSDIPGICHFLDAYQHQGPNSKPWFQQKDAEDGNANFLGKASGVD
Description: Stimulation of recombinant soluble guanylate cyclase (sGC) in vitro, heme-containing enzyme. The class given is biochemical. The note with it: Ex. 6 0 μM. The protocol:
The investigations of the stimulation of recombinant soluble guanylate cyclase (sGC) […] heme-dependent sGC inhibitor 1H-1,2,4-oxadiazole-(4,3a)-quinoxalin-1-one (ODQ) were carried out according to the method described in detail in the following literature reference: M. Hoenicka, E. M. Becker, H. Apeler, T. Sirichoke, H. Schroeder, R. Gerzer and J.-P. Stasch: Purified soluble guanylyl cyclase expressed in a baculovirus/Sf9 system: stimulation by YC-1, nitric oxide, and carbon oxide. J. Mol. Med. 77 (1999): 14-23.
Activation of sGC by a test substance is stated as n-fold stimulation of basal activity.

Another assay has as its system arteria saphena rings. Briefly: Vasorelaxant effect in vitro (phenylephrine-contracted arteria saphena rings). The class given is cell-based, Rabbits. The note with it: Oryctolagus cuniculus; rabbit arteria saphena rings, phenylephrine contraction. The protocol: Rabbits are anesthetized or killed by intravenous injection of thiopental sodium (about 50 mg/kg) and exsanguinated. The arteria saphena is removed and divided into rings 3 mm wide. The individual rings are in each case mounted on a pair of hooks of triangular shape, open at the ends and made of special wire (Remanium®) having a diameter of 0.3 mm. Under pretension, each ring is introduced into a 5 ml organ bath containing carbogen-gassed Krebs-Henseleit solution at 37° C. with the following composition (mM): NaCl: 119; KCl: 4.8; CaCl2×2H2O: 1; MgSO4×7H2O: 1.4; KH2PO4: 1.2; NaHCO3: 25; glucose: 10; bovine serum albumin: 0.001%. The force of contraction is detected with Statham UC2 cells, amplified and digitized via A/D converters (DAS-1802 HC, Keithley Instruments, Munich) and recorded in parallel on chart recorders. Contractions are generated by adding phenylephrine.
After several (generally 4) control cycles, the substance to be investigated is added in each further run in increasing dosage, and the height of the contraction reached under the influence of the test substance is compared with the height of the contraction reached in the last preceding run. The concentration necessary to reduce the height of the control value by 50% (IC50) is calculated from this. The standard application volume is 5 μl. The DMSO content in the bath solution corresponds to 0. 1%.

Take `CCN(CC)[N+]([O-])=NO` [DEA/NO, 2-(N,N-diethylamino)diazenolate 2-oxide, reference compound]: the results for the “Stimulation (n-fold), heme-containing sGC, DEA/NO alone” value on Heme-containing sGC (DEA/NO 0.001 μM), at Heme-containing sGC (DEA/NO 0.01 μM) and on Heme-containing sGC (DEA/NO 0.1 μM) were 5 n-fold, 30 n-fold and 124 n-fold, respectively. On to `CC(C)(C)c1ccc(-c2ccc(COc3ccccc3CCN(CCCCC(=O)O)Cc3ccc(C(=O)O)cc3)c(F)c2)cc1` [Example 2], for which the IC50 in the assay on arteria saphena rings stood at 0.15 nM.

In the assay on arteria saphena rings, `O=C(O)CCCCN(CCc1ccccc1OCc1ccc(C2=CCCCC2)cc1Cl)Cc1ccc(C(=O)O)cc1` [Example 9] displayed an IC50 of 1.8 nM. In the assay on arteria saphena rings, `O=C(O)CCCCN(CCc1ccccc1OCc1ccc(C2CCCCC2)cc1Cl)Cc1ccc(C(=O)O)cc1` [Example 12] gave an IC50 of 2 nM.
